We go through 25 substances from the OligoGym collection.

HELM strings list units from the 5' end as sugar, base in round brackets, then linkage (d deoxyribose, r ribose, m 2'-O-methyl, p phosphodiester). Strings are as the collection lists them; they lack the last nucleoside at the 3' end of the tested compound. [moe] = 2'-O-(2-methoxyethyl) (MOE); [sp] = phosphorothioate linkage; [m5C] = 5-methylcytosine

This series has as its target GFAP. The series can be described thus: mouse, dose not given. The settings on record: ASO.
In turn, “RNA1{[moe](A)[sp].[moe]([m5C])p.[moe](A)p.[moe](T)p.[moe](T)p.[moe]([m5C])p.d(A)[sp].d([m5C])[sp].d(T)[sp].d(A)[sp].d(A)[sp].d(T)[sp].d(A)[sp].d(T)[sp].d(T)[sp].d(T)[sp].[moe](A)p.[moe](A)[sp].[moe]([m5C])}$$$$ (last 3' nucleoside missing)” came in with a 3 h FOB score of 0 score 0-7.

Consider “RNA1{[moe](A)[sp].[moe]([m5C])p.[moe](A)p.[moe](T)p.[moe](T)p.d([m5C])[sp].d(A)[sp].d([m5C])[sp].d(T)[sp].d(A)[sp].d(A)[sp].d(T)[sp].d(A)[sp].d(T)[sp].d(T)[sp].[moe](T)p.[moe](A)p.[moe](A)[sp].[moe]([m5C])}$$$$ (last 3' nucleoside missing)”, for which the 3 h FOB score came to 0 score 0-7.

With “RNA1{[moe](A)[sp].[moe]([m5C])p.[moe](A)p.[moe](T)p.d(T)[sp].d([m5C])[sp].d(A)[sp].d([m5C])[sp].d(T)[sp].d(A)[sp].d(A)[sp].d(T)[sp].d(A)[sp].d(T)[sp].[moe](T)p.[moe](T)p.[moe](A)p.[moe](A)[sp].[moe]([m5C])}$$$$ (last 3' nucleoside missing)”, the 3 h FOB score amounted to 0 score 0-7.

In turn, “RNA1{[moe](A)[sp].[moe]([m5C])p.[moe](G)p.[moe](T)p.[moe]([m5C])p.[moe](A)p.d([m5C])[sp].d(A)[sp].d(T)[sp].d(T)[sp].d([m5C])[sp].d(A)[sp].d([m5C])[sp].d(T)[sp].d(A)[sp].d(A)[sp].[moe](T)p.[moe](A)[sp].[moe](T)}$$$$ (last 3' nucleoside missing)” gave a 3 h FOB score of 0 score 0-7.

In the case of “RNA1{[moe](A)[sp].[moe]([m5C])p.[moe](G)p.[moe](T)p.[moe]([m5C])p.d(A)[sp].d([m5C])[sp].d(A)[sp].d(T)[sp].d(T)[sp].d([m5C])[sp].d(A)[sp].d([m5C])[sp].d(T)[sp].d(A)[sp].[moe](A)p.[moe](T)p.[moe](A)[sp].[moe](T)}$$$$ (last 3' nucleoside missing)”, the 3 h FOB score was found to be 0 score 0-7.

“RNA1{[moe](A)[sp].[moe]([m5C])p.[moe](G)p.[moe](T)p.d([m5C])[sp].d(A)[sp].d([m5C])[sp].d(A)[sp].d(T)[sp].d(T)[sp].d([m5C])[sp].d(A)[sp].d([m5C])[sp].d(T)[sp].[moe](A)p.[moe](A)p.[moe](T)p.[moe](A)[sp].[moe](T)}$$$$ (last 3' nucleoside missing)” yielded a 3 h FOB score of 0 score 0-7.

As to “RNA1{[moe](A)[sp].[moe]([m5C])p.[moe](T)p.[moe](A)p.[moe](G)p.[moe](T)p.d([m5C])[sp].d(A)[sp].d(G)[sp].d([m5C])[sp].d([m5C])[sp].d(T)[sp].d(G)[sp].d(G)[sp].d(T)[sp].d(T)[sp].[moe](A)p.[moe](G)[sp].[moe]([m5C])}$$$$ (last 3' nucleoside missing)”, the 3 h FOB score is 4 score 0-7.

In turn, “RNA1{[moe](A)[sp].[moe]([m5C])p.[moe](T)p.[moe](A)p.[moe](G)p.d(T)[sp].d([m5C])[sp].d(A)[sp].d(G)[sp].d([m5C])[sp].d([m5C])[sp].d(T)[sp].d(G)[sp].d(G)[sp].d(T)[sp].[moe](T)p.[moe](A)p.[moe](G)[sp].[moe]([m5C])}$$$$ (last 3' nucleoside missing)” had a 3 h FOB score of 2 score 0-7.

Take “RNA1{[moe](A)[sp].[moe]([m5C])p.[moe](T)p.[moe](A)p.[moe](T)[sp].d([m5C])[sp].d(T)[sp].d(A)[sp].d(G)[sp].d(G)[sp].d(A)[sp].d(T)[sp].d(T)[sp].[moe](T)p.[moe](G)p.[moe](G)[sp].[moe]([m5C])}$$$$ (last 3' nucleoside missing)”: the 3 h FOB score worked out at 4 score 0-7.

“RNA1{[moe](A)[sp].[moe]([m5C])p.[moe](T)p.[moe](A)p.d(G)[sp].d(T)[sp].d([m5C])[sp].d(A)[sp].d(G)[sp].d([m5C])[sp].d([m5C])[sp].d(T)[sp].d(G)[sp].d(G)[sp].[moe](T)p.[moe](T)p.[moe](A)p.[moe](G)[sp].[moe]([m5C])}$$$$ (last 3' nucleoside missing)” displayed a 3 h FOB score of 2 score 0-7.

With “RNA1{[moe](A)[sp].[moe]([m5C])p.[moe](T)p.[moe](A)p.d(T)[sp].d([m5C])[sp].d(T)[sp].d(A)[sp].d(G)[sp].d(G)[sp].d(A)[sp].d(T)[sp].d(T)[sp].d(T)[sp].[moe](G)p.[moe](G)p.[moe]([m5C])p.[moe](A)[sp].[moe](G)}$$$$ (last 3' nucleoside missing)”, the 3 h FOB score worked out at 2 score 0-7.

For the substance “RNA1{[moe](A)[sp].[moe]([m5C])p.[moe]([m5C])p.[moe](T)p.[moe]([m5C])[sp].d([m5C])[sp].d(A)[sp].d(T)[sp].d([m5C])[sp].d(T)[sp].d([m5C])[sp].d(T)[sp].d(G)[sp].d(G)[sp].d([m5C])[sp].[moe](A)p.[moe](A)p.[moe]([m5C])[sp].[moe](A)}$$$$ (last 3' nucleoside missing)”, the 3 h FOB score is 6 score 0-7.

As for “RNA1{[moe](A)[sp].[moe]([m5C])p.[moe]([m5C])p.[moe](T)p.[moe]([m5C])[sp].d([m5C])[sp].d([m5C])[sp].d(T)[sp].d(G)[sp].d(A)[sp].d([m5C])[sp].d([m5C])[sp].d(T)[sp].d(G)[sp].d(T)[sp].[moe]([m5C])p.[moe](T)p.[moe](A)[sp].[moe](T)}$$$$ (last 3' nucleoside missing)”, the 3 h FOB score is 3 score 0-7.

Turning to “RNA1{[moe](G)[sp].[moe](A)p.[moe](A)p.[moe](T)p.[moe](G)[sp].d(G)[sp].d(T)[sp].d(G)[sp].d(A)[sp].d(T)[sp].d([m5C])[sp].d([m5C])[sp].d(G)[sp].d(G)[sp].d(T)[sp].[moe](T)p.[moe]([m5C])p.[moe](T)[sp].[moe]([m5C])}$$$$ (last 3' nucleoside missing)”, the 3 h FOB score stood at 5 score 0-7.

Substance “RNA1{[moe](G)[sp].[moe](A)p.[moe](A)p.[moe](T)p.[moe]([m5C])[sp].d(A)[sp].d(T)[sp].d(T)[sp].d(T)[sp].d([m5C])[sp].d(A)[sp].d(G)[sp].d(G)[sp].d(G)[sp].d([m5C])[sp].[moe]([m5C])p.[moe](A)p.[moe](A)[sp].[moe](T)}$$$$ (last 3' nucleoside missing)” showed a 3 h FOB score of 6 score 0-7.

In turn, “RNA1{[moe](G)[sp].[moe](A)p.[moe](G)p.[moe](A)p.[moe](T)[sp].d(A)[sp].d(T)[sp].d([m5C])[sp].d(T)[sp].d(T)[sp].d(G)[sp].d(T)[sp].d(G)[sp].[moe](A)p.[moe]([m5C])p.[moe]([m5C])[sp].[moe](T)}$$$$ (last 3' nucleoside missing)” had a 3 h FOB score of 4 score 0-7.

In the case of “RNA1{[moe](G)[sp].[moe](A)p.[moe](G)p.[moe](A)p.[moe](T)[sp].d(A)[sp].d(T)[sp].d([m5C])[sp].d(T)[sp].d(T)[sp].d(G)[sp].d(T)[sp].d(G)[sp].d(A)[sp].d([m5C])[sp].[moe]([m5C])p.[moe](T)p.[moe](T)[sp].[moe](G)}$$$$ (last 3' nucleoside missing)”, the 3 h FOB score was 4 score 0-7.

“RNA1{[moe](G)[sp].[moe](A)p.[moe](G)p.[moe](A)p.[moe]([m5C])[sp].d(A)[sp].d(T)[sp].d(G)[sp].d([m5C])[sp].d(A)[sp].d(T)[sp].d(A)[sp].d(T)[sp].d([m5C])[sp].d(T)[sp].[moe](A)p.[moe](G)p.[moe](T)[sp].[moe](G)}$$$$ (last 3' nucleoside missing)” yielded a 3 h FOB score of 6 score 0-7.

As to “RNA1{[moe](G)[sp].[moe](A)p.[moe](G)p.[moe](G)p.[moe]([m5C])[sp].d(T)[sp].d(T)[sp].d(T)[sp].d(T)[sp].d(G)[sp].d(A)[sp].d(G)[sp].d(A)[sp].d(T)[sp].d(A)[sp].[moe](T)p.[moe]([m5C])p.[moe](T)[sp].[moe](T)}$$$$ (last 3' nucleoside missing)”, the 3 h FOB score came out at 4 score 0-7.

Turning to “RNA1{[moe](G)[sp].[moe](A)p.[moe](G)p.[moe](T)p.[moe](G)[sp].d(T)[sp].d(G)[sp].d(T)[sp].d(A)[sp].d(T)[sp].d(T)[sp].d(A)[sp].d(G)[sp].d(G)[sp].d(A)[sp].[moe](T)p.[moe]([m5C])p.[moe]([m5C])[sp].[moe]([m5C])}$$$$ (last 3' nucleoside missing)”, the 3 h FOB score worked out at 6 score 0-7.

For the substance “RNA1{[moe](G)[sp].[moe](A)p.[moe](G)p.[moe](T)p.[moe](T)[sp].d(T)[sp].d([m5C])[sp].d(T)[sp].d(T)[sp].d(G)[sp].d(T)[sp].d(T)[sp].d(A)[sp].d(G)[sp].d(T)[sp].[moe](T)p.[moe](G)p.[moe](G)[sp].[moe](A)}$$$$ (last 3' nucleoside missing)”, the 3 h FOB score is 7 score 0-7.

For “RNA1{[moe](G)[sp].[moe](A)p.[moe](G)p.[moe](T)p.[moe]([m5C])[sp].d(T)[sp].d([m5C])[sp].d(A)[sp].d(G)[sp].d(T)[sp].d(T)[sp].d(T)[sp].d(T)[sp].d([m5C])[sp].d([m5C])[sp].[moe](T)p.[moe]([m5C])p.[moe]([m5C])[sp].[moe](A)}$$$$ (last 3' nucleoside missing)”, the 3 h FOB score is 4 score 0-7.

“RNA1{[moe](G)[sp].[moe](A)p.[moe](G)p.[moe](T)p.d(G)[sp].d(T)[sp].d(G)[sp].d(T)[sp].d(A)[sp].d(T)[sp].d(T)[sp].d(A)[sp].d(G)[sp].d(G)[sp].[moe](A)p.[moe](T)p.[moe]([m5C])p.[moe]([m5C])[sp].[moe]([m5C])}$$$$ (last 3' nucleoside missing)” came in with a 3 h FOB score of 4 score 0-7.

Consider “RNA1{[moe](G)[sp].[moe](A)p.[moe](T)p.[moe](T)p.[moe](T)[sp].d(T)[sp].d([m5C])[sp].d([m5C])[sp].d([m5C])[sp].d([m5C])[sp].d(G)[sp].d(T)[sp].d([m5C])[sp].d(T)[sp].d(T)[sp].[moe](T)p.[moe](G)p.[moe](G)[sp].[moe](T)}$$$$ (last 3' nucleoside missing)”, for which the 3 h FOB score worked out at 6 score 0-7.

“RNA1{[moe](G)[sp].[moe](A)p.[moe]([m5C])p.[moe](T)p.[moe](A)[sp].d(T)[sp].d([m5C])[sp].d(T)[sp].d(A)[sp].d(G)[sp].d(G)[sp].d(A)[sp].d(T)[sp].d(T)[sp].d(T)[sp].[moe](G)p.[moe](G)p.[moe]([m5C])[sp].[moe](A)}$$$$ (last 3' nucleoside missing)”: the 3 h FOB score amounted to 5 score 0-7.
